Experimental data taken from patent US5086045A, “Antitumor antibiotic” (Bristol-Myers Squibb Company, priority 1990, dated 1992).
In brackets after ≈: the same amount, converted by molar mass. Entries after “also recorded” stand apart in the source; their conditions may differ.

Experiments:
[1] = test system: S. aureus A9537; experiment: Antibacterial activity (MIC), serial two-fold agar dilution; format: cell-based; conditions: Staphylococcus aureus
Method: (§1) Antimicrobial activity of BMY-41339 was determined for a variety of bacteria by the serial two-fold agar dilution method.

[2] = test system: E. coli A20697; experiment: as above; format: cell-based; conditions: Escherichia coli
Method: as §1

[3] = test system: E. faecalis A20688; experiment: as above; format: cell-based; conditions: Enterococcus faecalis
Method: as §1

[4] = test system: K. pneumoniae A20468; experiment: as above; format: cell-based; conditions: Klebsiella pneumoniae
Method: as §1

[5] = test system: E. faecalis A25707; experiment: as above; format: cell-based; conditions: Enterococcus faecalis
Method: as §1

[6] = test system: P. aeruginosa A20235; experiment: as above; format: cell-based; conditions: Pseudomonas aeruginosa
Method: as §1

[7] = test system: P. aeruginosa A21508; experiment: as above; format: cell-based; conditions: Pseudomonas aeruginosa
Method: as §1

[8] = test system: S. aureus A24407; experiment: as above; format: cell-based; conditions: Staphylococcus aureus
Method: as §1

[9] = test system: a variety of bacteria; experiment: Antimicrobial activity, serial two-fold agar dilution, overall; format: cell-based
Method: as §1

[10] = test system: P388 leukemia; experiment: In vivo antitumor activity, P388 leukemia implanted iv, drug iv; set-up: species or system mouse;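 on % T/C: median survival time of treated over control mice times 100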;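 on T/C: median survival time of treated over control mice times 100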
Method: The in vivo antitumor activity of BMY-41339 was determined in the standard P388 mouse leukemia model. A summary of the experiments performed using BMY-41339 is provided below.
DBA/2 and (Balb/c × DBA/2)F1 (CDF1) hybrid mice were purchased from Charles River Breeding Co. (Wilmington, MA). They were provided food and water ad libitum.
The P388 murine ascites leukemia was maintained by weekly in vivo passage in DBA/2 mice.
Esperamicin A1 and BMY-41339 were dissolved in ethanol. Further dilutions were made with 0.9% NaCl (saline) until the ethanol concentration (v/v) was 10%. All administrations were made, therefore, in a 10% ethanol in saline vehicle. For ip injections, the concentration of compound was adjusted according to the average initial body weight of each group of mice to be injected such that the desired dose would be contained in a 0.5 ml injection volume. The same procedure was used for iv compound administration except the injection volume was 0.2 ml.
Antitumor experiments were initiated by implanting […] P388 leukemia cells either ip or iv into CDF1 mice. BMY-41339 and esperamicin A1 (included as a positive reference compound), were injected either ip in mice implanted ip with P388, or iv in mice implanted iv with P388 on Day 2 post-implant only Eight different dose levels of BMY-41339, at two-fold increments, were evaluated in each of the two experiments performed.
A % T/C value of ≥ 125 was considered indicative of activity in these models.

[11] = Exp. 8102, iv, 0.025 mg/kg/dose
[12] = Exp. 8102, iv, same doses up to 3.2 μg/kg
[13] = Exp. 8109, iv, 0.025 mg/kg/dose

C=C(OC)C(=O)Nc1cc(OC)c(OC)cc1C(=O)OC1CC(OC2C(=O)C(NC(=O)OC)=C3C(=CCSSSSC)C2(O)C#CC=CC#CC3OC2OC(C)C(NOC3CC(O)C(SC)C(C)O3)C(O)C2OC2CC(OC)C(NC(C)C)CO2)OC(C)C1O (stereo not drawn) [BMY-41339] was tested. Which MIC [1] did it give?
The MIC was 0.001 µg/mL (≈ 0.000737 µM).

What about the MIC [2] of the same molecule?
The MIC was 0.25 µg/mL (≈ 0.184 µM).

What about the MIC [3] of the same molecule?
The MIC was 0.002 µg/mL (≈ 0.00147 µM).

And the MIC [4]?
Its MIC is 1 µg/mL (≈ 0.737 µM).

And the MIC [5]?
The MIC was 0.002 µg/mL (≈ 0.00147 µM).

And the MIC [6]?
Its MIC is 0.13 µg/mL (≈ 0.0958 µM).

What about the MIC [7] of the same molecule?
The MIC was 0.25 µg/mL (≈ 0.184 µM).

And the MIC [8]?
The MIC was 0.001 µg/mL (≈ 0.000737 µM).

What about the antibacterial activity spectrum [9] of the same molecule?
The antibacterial activity spectrum was “broad spectrum of antibacterial activity; also recorded: antimicrobial activity against a broad spectrum of bacteria”.

And the “% T/C” value [10, 11]?
The value was 100%.

And the “Avg. wt. change on day 6” value [10, 11]?
The value was 0.4 grams.

And the “Survivors on Day 5” value [10, 11]?
The value was 6/6.

What about the “% T/C” value ([10]; Exp. 8102, iv, 0.05 mg/kg/dose) of the same molecule?
Its value is 100%.

And the “Avg. wt. change on day 6” value ([10]; Exp. 8102, iv, 0.05 mg/kg/dose)?
The value was 0.1 grams.

And the “Survivors on Day 5” value ([10]; Exp. 8102, iv, 0.05 mg/kg/dose)?
The value was 6/6.

What about the “% T/C” value ([10]; Exp. 8102, iv, 0.1 mg/kg/dose) of the same molecule?
Its value is 106%.

What about the “Avg. wt. change on day 6” value ([10]; Exp. 8102, iv, 0.1 mg/kg/dose) of the same molecule?
The value was 0.4 grams.

And the “Survivors on Day 5” value ([10]; Exp. 8102, iv, 0.1 mg/kg/dose)?
Its value is 6/6.

What about the “% T/C” value ([10]; Exp. 8102, iv, 0.2 mg/kg/dose) of the same molecule?
Its value is 100%.

And the “Avg. wt. change on day 6” value ([10]; Exp. 8102, iv, 0.2 mg/kg/dose)?
The value was -0.3 grams.

And the “Survivors on Day 5” value ([10]; Exp. 8102, iv, 0.2 mg/kg/dose)?
Its value is 6/6.

And the “% T/C” value ([10]; Exp. 8102, iv, 0.4 mg/kg/dose)?
The value was 100%.

What about the “Avg. wt. change on day 6” value ([10]; Exp. 8102, iv, 0.4 mg/kg/dose) of the same molecule?
Its value is -0.4 grams.

And the “Survivors on Day 5” value ([10]; Exp. 8102, iv, 0.4 mg/kg/dose)?
The value was 6/6.

What about the “% T/C” value ([10]; Exp. 8102, iv, 0.8 mg/kg/dose) of the same molecule?
The value was 100%.

And the “Avg. wt. change on day 6” value ([10]; Exp. 8102, iv, 0.8 mg/kg/dose)?
The value was -0.3 grams.

What about the “Survivors on Day 5” value ([10]; Exp. 8102, iv, 0.8 mg/kg/dose) of the same molecule?
The value was 6/6.

And the “% T/C” value ([10]; Exp. 8102, iv, 1.6 mg/kg/dose)?
The value was 100%.

What about the “Avg. wt. change on day 6” value ([10]; Exp. 8102, iv, 1.6 mg/kg/dose) of the same molecule?
Its value is -0.1 grams.

What about the “Survivors on Day 5” value ([10]; Exp. 8102, iv, 1.6 mg/kg/dose) of the same molecule?
The value was 6/6.

What about the “% T/C” value ([10]; Exp. 8102, iv, 3.2 mg/kg/dose) of the same molecule?
Its value is 113%.

What about the “Avg. wt. change on day 6” value ([10]; Exp. 8102, iv, 3.2 mg/kg/dose) of the same molecule?
The value was -0.2 grams.

What about the “Survivors on Day 5” value ([10]; Exp. 8102, iv, 3.2 mg/kg/dose) of the same molecule?
Its value is 6/6.

What about the “effectiveness versus iv-implanted leukemia” value [10, 12] of the same molecule?
The value was “not effective”.

What about the “maximum tolerated dose reached” value [10, 12] of the same molecule?
The value was “no indication of having reached a maximum tolerated dose”.

What about the T/C ([10]; Exp. 8109, iv, 16 μg/kg) of the same molecule?
The T/C was 139%.

And the “% T/C” value [10, 13]?
The value was 100%.

What about the “Avg. wt. change on day 6” value [10, 13] of the same molecule?
Its value is 0.4 grams.

And the “Survivors on Day 5” value [10, 13]?
The value was 6/6.

And the T/C ([10]; Exp. 8109, iv, 32 μg/kg)?
Its T/C is 156%.

And the “% T/C” value ([10]; Exp. 8109, iv, 0.05 mg/kg/dose)?
Its value is 100%.

What about the “Avg. wt. change on day 6” value ([10]; Exp. 8109, iv, 0.05 mg/kg/dose) of the same molecule?
The value was 0.1 grams.

What about the “Survivors on Day 5” value ([10]; Exp. 8109, iv, 0.05 mg/kg/dose) of the same molecule?
The value was 6/6.

What about the “% T/C” value ([10]; Exp. 8109, iv, 0.1 mg/kg/dose) of the same molecule?
The value was 106%.

And the “Avg. wt. change on day 6” value ([10]; Exp. 8109, iv, 0.1 mg/kg/dose)?
Its value is 0.4 grams.

What about the “Survivors on Day 5” value ([10]; Exp. 8109, iv, 0.1 mg/kg/dose) of the same molecule?
The value was 6/6.

What about the “% T/C” value ([10]; Exp. 8109, iv, 0.2 mg/kg/dose) of the same molecule?
The value was 100%.

And the “Avg. wt. change on day 6” value ([10]; Exp. 8109, iv, 0.2 mg/kg/dose)?
Its value is -0.3 grams.

What about the “Survivors on Day 5” value ([10]; Exp. 8109, iv, 0.2 mg/kg/dose) of the same molecule?
Its value is 6/6.

And the “% T/C” value ([10]; Exp. 8109, iv, 0.4 mg/kg/dose)?
Its value is 100%.

And the “Avg. wt. change on day 6” value ([10]; Exp. 8109, iv, 0.4 mg/kg/dose)?
The value was -0.4 grams.

What about the “Survivors on Day 5” value ([10]; Exp. 8109, iv, 0.4 mg/kg/dose) of the same molecule?
Its value is 6/6.

What about the “% T/C” value ([10]; Exp. 8109, iv, 0.8 mg/kg/dose) of the same molecule?
Its value is 100%.

And the “Avg. wt. change on day 6” value ([10]; Exp. 8109, iv, 0.8 mg/kg/dose)?
Its value is -0.3 grams.

And the “Survivors on Day 5” value ([10]; Exp. 8109, iv, 0.8 mg/kg/dose)?
Its value is 6/6.

What about the “% T/C” value ([10]; Exp. 8109, iv, 1.6 mg/kg/dose) of the same molecule?
The value was 100%.

And the “Avg. wt. change on day 6” value ([10]; Exp. 8109, iv, 1.6 mg/kg/dose)?
Its value is -0.1 grams.

And the “Survivors on Day 5” value ([10]; Exp. 8109, iv, 1.6 mg/kg/dose)?
The value was 6/6.

And the “% T/C” value ([10]; Exp. 8109, iv, 3.2 mg/kg/dose)?
Its value is 113%.

What about the “Avg. wt. change on day 6” value ([10]; Exp. 8109, iv, 3.2 mg/kg/dose) of the same molecule?
The value was -0.2 grams.

What about the “Survivors on Day 5” value ([10]; Exp. 8109, iv, 3.2 mg/kg/dose) of the same molecule?
The value was 6/6.

And the increases in lifespan ([10]; Exp. 8109, iv, at two dose levels evaluated)?
Its increases in lifespan is “active increases”.

And the “activity against disseminated iv implanted P388 leukemia” value ([10]; conclusion, when adequate dosage was administered)?
The value was “active against the disseminated iv implanted P388 leukemia model”.
